# In PubChem BioAssay (NCI):
#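 48-hour exposure; five concentrations; linearly interpolated endpoints. Abbreviation: GI50, concentration required for 50% inhibition of growth. TGI: concentration producing complete growth inhibition.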
# Key:
# Test in all cases: inhibition of tumour cell growth, NCI panel, 48 h
# ACHN renal = tested on: ACHN renal
# LOX IMVI melanoma = tested on: LOX IMVI melanoma
# RXF 393 renal = tested on: RXF 393 renal
# SNB-19 CNS = tested on: SNB-19 CNS
# UACC-257 melanoma = tested on: UACC-257 melanoma
# UACC-62 melanoma = tested on: UACC-62 melanoma
# UO-31 renal = tested on: UO-31 renal
Compound,TGI (ACHN renal) [µM],TGI (LOX IMVI melanoma) [µM],TGI (RXF 393 renal) [µM],TGI (SNB-19 CNS) [µM],TGI (UACC-257 melanoma) [µM],TGI (UACC-62 melanoma) [µM],TGI (UO-31 renal) [µM],GI50 (ACHN renal) [µM],GI50 (LOX IMVI melanoma) [µM],GI50 (SNB-19 CNS) [µM],GI50 (UACC-62 melanoma) [µM],GI50 (UO-31 renal) [µM],GI50 (RXF 393 renal) [µM],GI50 (UACC-257 melanoma) [µM]
NC1=NC(=O)C(CC(=O)Nc2ccc([N+](=O)[O-])cc2[N+](=O)[O-])S1 (stereo not drawn),> 100,> 100,> 100,> 100,> 100,> 100,> 100,–,–,–,–,–,–,–
c1cc[c]([Sn]([S]c2cccc3cccnc23)([c]2ccccc2)[c]2ccccc2)cc1,0.116,0.0304,–,0.901,–,0.162,0.145,0.0335,0.0159,0.256,0.0352,0.0511,–,–
CC1(C)CCc2cc3c(cc2O1)OCCC3=O,> 100,> 100,> 100,> 100,> 100,> 100,> 100,–,–,–,–,–,–,–
c1ccc2c(c1)N=C(c1cccc3ccccc13)CC(c1cccc3ccccc13)S2 (stereo not drawn),23.5,11.4,16.5,12.9,31.8,19.8,23.6,–,–,–,–,–,–,–
CCOC(=O)Cc1nc(/C(C#N)=C/c2ccco2)[nH]c(=O)c1C#N,> 100,> 100,> 100,> 100,> 100,> 100,> 100,–,–,–,–,–,–,–
CC(=O)c1c(C)n([O-])c2cc(C)c(C)cc2[n+]1=O,> 100,> 100,–,> 100,> 100,> 100,> 100,–,–,–,–,–,–,–
O=C1N[C@@H](O)[C@@H]2ON=C(c3ccccc3)[C@H]12,> 100,> 100,> 100,> 100,> 100,> 100,> 100,–,–,–,–,–,–,–
COc1cc(/C=C\c2ccc(O)cc2)cc(OC)c1OC,> 100,> 100,> 25.1,> 100,> 100,> 29.1,> 36.6,–,–,–,–,–,–,–
Clc1ccc(CNc2nc3ccccc3nc2-c2cccs2)c(Cl)c1,> 100,–,> 100,> 100,> 100,–,> 100,–,–,–,–,–,–,–
CC(=O)OCCOCBr,> 100,> 100,> 100,–,> 100,> 100,> 100,–,–,–,–,–,–,–
CC1=Nc2c(ccc3c2C(=O)c2ccccc2C3=O)NC(c2ccncc2)C1 (stereo not drawn),> 100,> 100,> 100,> 100,> 100,> 100,> 100,23.5,–,> 100,–,–,> 100,> 100
CC(O)CN1C(=O)NC(Cc2ccccc2)C1=O (stereo not drawn),> 100,> 100,> 100,> 100,> 100,–,> 100,–,–,–,–,–,–,–
CN(C)C(=S)/N=c1\ss/c(=N\S(=O)(=O)c2ccccc2)n1-c1ccccc1,> 100,> 100,> 100,–,> 100,> 100,> 100,–,–,–,–,–,–,–
Clc1cc(Cl)c2c(Cl)cc(Cl)c3c2c1N=S=N3,–,> 100,> 100,> 100,> 100,> 100,> 100,–,–,–,–,–,–,–
CC(C)(C)C1(O)Cc2ccccc2C(=O)O1 (stereo not drawn),> 100,> 100,> 100,> 100,> 100,> 100,> 100,–,–,–,–,–,–,–
CN1CCN(C)C1c1cccc(C2N(C)CCN2C)c1,> 100,> 100,> 100,> 100,–,> 100,> 100,–,–,–,–,–,–,–
COc1ccc(C2C(N)=NCC2c2ccccn2)cc1 (stereo not drawn),> 100,> 100,> 100,> 100,> 100,> 100,> 100,–,–,–,–,–,–,–
NS(=O)(=O)c1ccc(NC(=O)c2cccc3c(=O)c4ccccc4[nH]c23)cc1,> 100,> 100,–,> 100,> 100,> 100,67.8,–,–,–,–,–,–,–
CC1CCCC(C(=O)/C(=C/c2cccc(Cl)c2)C(=O)C(=O)O)C1 (stereo not drawn),> 100,–,–,> 100,> 100,> 100,> 100,–,–,–,–,–,–,–
Cc1ccc(-c2nc(C(Cl)Cl)n3nc(-c4ccccc4)cc3n2)cc1,0.93,> 100,0.896,–,–,–,–,0.302,> 100,–,–,–,0.298,–
N#Cc1c(N)c(C(=O)O)nn(-c2cccc(C(F)(F)F)c2)c1=O,> 100,> 100,> 100,> 100,–,> 100,> 100,–,–,–,–,–,–,–
CC/C=C\C/C=C\C1CC(=O)NCCCNCCCCN1 (stereo not drawn),–,> 100,70.4,> 100,> 100,–,> 100,–,–,–,–,–,–,–
C=C(COC(C)=O)CC(/C=C(\C)CCC=C(C)C)OC(C)=O (stereo not drawn),> 100,> 100,> 100,> 100,–,> 100,> 100,–,–,–,–,–,–,–
O=C1c2ccccc2-c2cccc3ccc(Cc4ccccc4)c1c23,> 100,–,> 100,> 100,> 100,> 100,> 100,–,–,–,–,–,–,–
